Test results as given in a melting point compilation (Tetko et al.; mined from patent text by program, amines drawn as free bases though some values may be those of a salt).

Row | Compound | melting point [°C]
1 | COC(=O)CCC(CSc1ccc2ccccc2c1)C(=O)O (stereo not given) | 70 to 71
2 | COc1cc(NC(C)=O)c(Cl)cc1C(=O)NN1CCN(Cc2cccs2)CC1 | 178 to 181
3 | O=S(Cc1ccccc1NC1CCCC1)c1nc2ncccc2[nH]1 (stereo not given) | 134
4 | CCCC1CCC(C2CCC(C3CCC(C(=O)OC)C(=O)C3)CC2)CC1 (stereo not given) | 154
5 | CC(C)(O)Cn1c(CO)nc2c(N)nc3ccccc3c21 | 264 to 271
6 | CCOC(=O)C(NC(=O)OC(C)(C)C)=C1CSCSC1 | 154
7 | Oc1ccc(-c2ncco2)cc1 | 167 to 168
8 | CCOC(=O)c1c(N2CCN(C(=O)c3ccco3)CC2)c2cc(F)cnc2n(Cc2ccccc2)c1=O | 119
9 | Cc1cc(-n2ccnc2)c2cccc(O)c2n1 | 192 to 196
10 | COc1cc2cc(COC(C)=O)c(COC(C)=O)c(-c3ccncc3)c2cc1OC | 165 to 167
11 | Clc1cccc(CNc2ncc(Cc3ccncc3)c3ccccc23)c1 | 141 to 142
12 | NC1=NC(Br)=C(c2ccc(C(F)(F)F)cc2)c2ccccc2C1 | 227 to 229
13 | O=C(O)c1ccc(CCCC2SCC(=O)N2CCCC2(O)CCCCC2)cc1 (stereo not given) | 118 to 121
14 | COC(=O)Nc1nc2cc(SCC3CC3)ccc2[nH]1 | 228 to 231
15 | Cn1nc(NC(=O)Nc2ccccc2)nc1NCCCOc1cccc(CN2CCCCC2)c1 | 137 to 139
16 | C=CCOc1ccc(C(=O)C=Cc2cc(OC)c(CCCC)c(OC)c2)cc1 | 74 to 75
17 | COc1cc(Oc2cccc3c2NC(=O)C3SC)cc(OC)c1OC (stereo not given) | 155 to 158
18 | O=C1c2ccccc2C2(O)Oc3ccc([N+](=O)[O-])cc3C12O (stereo not given) | 206 to 207
19 | CCC(=O)NNC(=O)c1ccncc1 | 131
20 | CC(O)c1cc(-c2ccc(Cl)cc2)no1 (stereo not given) | 141 to 143
21 | Nc1nc2c(ncn2OCCCP(=O)(O)O)c(=O)[nH]1 | > 300
22 | Clc1cccc(Cl)c1C=Nc1c2c(nc3ccccc13)CCCC2 | 200 to 202
23 | CCCN1CCCC1Cc1cccc(NC(N)=O)c1 (stereo not given) | 101 to 104
24 | CCOCCn1c(N2CCCN(CCC3(c4cccc(Cl)c4)CCN(C(=O)c4cc(OC)c(OC)c(OC)c4)C3)CC2)nc2ccccc21 (stereo not given) | 66 to 78
25 | COC(=O)C(=O)NCCCCCC1CCSS1 (stereo not given) | 42 to 43

Row | Compound | melting point [°C]
26 | O=C1Nc2cccc(NC(=O)c3cccn(-c4ccc(F)cc4)c3=O)c2/C1=C/c1ccc[nH]1 | > 300
27 | CCOC(=O)C(=NNc1ccccc1CC)C(=O)OCC | 33 to 34
28 | N#CC(=Cc1ccc[nH]1)c1cccnc1 | 139 to 142
29 | CCOC(=O)C1CCN(c2cc(-c3ccccc3)nc3ccc(F)cc23)CC1 | 120 to 124
30 | CCC[C@H](N[C@@H](C)C(=O)O)C(=O)OCC | 153 to 154
31 | O=C(NCCCCCCNC(=O)c1ccc2c(c1)OCO2)c1ccc2c(c1)OCO2 | 183 to 185
32 | COc1cc(CCN2CCN(c3nsc4ccccc34)CC2)c(NC(=O)C=C(C)C)cc1OC | 58
33 | CCOC(=O)c1ccc(OCCCCCCc2cccc(O)c2O)cc1 | 45 to 47
34 | CCCCCCCCCC(=O)c1cc(OC)c(Cl)cc1OC | 53 to 54
35 | Nc1ccc2c(c1)COc1cc(Nc3ccc(C(F)(F)F)cc3N)ccc1C2=O | 93.9
36 | CC[C@@H]1O[C@](C#CC2CC2)(C(F)(F)F)c2cc(F)ccc2NC1=O (relative stereo) | 186
37 | COC(=O)NC1=NC(c2cccc(C(F)(F)F)c2)CN1 (stereo not given) | 173 to 174
38 | Cc1nc2cc(Br)cc(Br)c2o1 | 122 to 124
39 | CCCc1c(OCCCCCOc2ccc3c(=O)cc(C(=O)OC)oc3c2CCC)ccc(C(C)=O)c1O | 86 to 87
40 | COc1ccc2c(c1)C(CCCNC(C)=O)CCC2 (stereo not given) | 71 to 73
41 | COC12CC(CNC(=S)NC(C)=O)CN(C)C1Cc1cn(C)c3cccc2c13 (stereo not given) | 170 to 172
42 | CCCCc1nc2ccccc2n1CC(=O)O | 70 to 71
43 | CN(C)C(=S)C(O)c1ccc(OCc2ccccc2)cc1 (stereo not given) | 104 to 107
44 | CC(C)(C)N(Cc1ccccc1)CC(O)c1ccc(OCc2ccccc2)c(C(O)CO)c1 (stereo not given) | 148 to 149
45 | COc1cc(C(C)=O)ccc1OCCN1C2CCC1CC(c1n[nH]c3ccccc13)C2 (stereo not given) | 154 to 155
46 | COC(=O)c1ccc(CCCOCCCCCCNCC(O)c2ccc(O)c(CO)c2)cc1 (stereo not given) | 43 to 45
47 | CCCCc1cc(-c2nnn[nH]2)ncc1C(=O)O | > 300
48 | O=Cc1cn(C(c2ccccc2)(c2ccccc2)c2ccccc2)c(F)n1 | 177 to 179
49 | CN(C)C(=O)C(OCc1ccc(-c2ccc(Cl)cc2)cc1)C(F)(F)F (stereo not given) | 103 to 107
50 | CSC1=NS(=O)(=O)c2cscc21 | 184 to 186

Row | Compound | melting point [°C]
51 | COC(=O)Cn1c(C)ccc(NC(=O)OCc2ccccc2)c1=O | 115 to 116
52 | O=C(CCl)Nc1cc(Oc2ncccc2C(F)(F)F)c(Cl)cc1F | 146 to 149
53 | O=C(NCCCc1ccncc1)N(CCC12CC3CC(CC(C3)C1)C2)C1CCCC1 | 136 to 138
54 | CCc1cnc(OCCOc2ncnc(NS(=O)(=O)c3ccc(C(C)(C)C)cc3)c2Oc2cccc(OC)c2)nc1 | 158 to 160
55 | COc1cn(-c2ccc(I)cc2F)nc(C(C)=O)c1=O | 196 to 198
56 | CC(C)c1nn(-c2nnc(C(F)(F)F)s2)cc1CCCO | 89 to 90
57 | CC1(C)OC(=C(C#N)C#N)C(C#N)=C1c1ccc(-n2cc(-c3ccccc3)nn2)cc1 | 280
58 | COc1ccc(-c2nc3cc4c(cc3[nH]2)C(C)(C)CC(=O)N4)cc1 | 235 to 238
59 | Oc1ccc(C(=C2SCCCS2)c2ccccc2)cc1 | 135 to 137
60 | OCCC1c2ccccc2C(O)=NN1c1cccc(C(F)(F)F)c1 (stereo not given) | 183 to 184
61 | O=c1[nH]nc(-c2ccccc2)c(-c2ccccc2)c1-c1ccccc1 | 290 to 292
62 | CCC1C(=O)N(c2ccccc2)C(=S)N1c1ccc(Oc2ccccc2)cc1 (stereo not given) | 158 to 159
63 | CC1(C)CCC(C)(C)c2nc(C(=O)CBr)cnc21 | > 300
64 | O=C(O)c1[nH]c(-c2ccccc2)cc1-c1ccc(O)cc1 | 192 to 193
65 | NCCCP(=O)(O)Cc1ccccc1 | 69 to 72
66 | COc1cccc(C=C2C(=O)c3ccccc3N2C(C)=O)c1[N+](=O)[O-] | 161 to 162
67 | COC(=O)C(C(=O)OC)C(C#Cc1ccccc1)c1ccc(OC)c(OC2CCCC2)c1 (racemic) | 66 to 67
68 | CC(C)C(C)(C)NC(=S)Nc1cc(Cl)cc(Cl)c1 | 132 to 134
69 | COc1cc2c(c3c1OC(C)(C)C3)C(c1cccc(-c3ccccc3)c1)=NC(C)(C)C2 | 141 to 142
70 | CC(C)(C)c1cc(-c2csc(CNC(=O)Cc3ccccc3)n2)cc(C(C)(C)C)c1O | 124 to 125
71 | CC1CCC(NC(=O)NS(=O)(=O)c2ccc(CCNC(=O)N3CCC(C)CC3=O)cc2)CC1 (stereo not given) | 190 to 191
72 | CN1Cc2cccc(S(N)(=O)=O)c2S1(=O)=O | 195 to 197
73 | CCn1c(=O)c2[nH]c(/C=C/c3ccc(OCOC)cc3)nc2n(CC)c1=O | 270 to 271
74 | C[C@@H]1S[C@@H](C(=O)Nc2ccc(CN3C(=O)CSC3=O)cc2)Cc2cc3c(cc2C1=O)OCO3 | 232 to 235
75 | CCCCN1C(=O)c2cnc(-c3ccccc3)nc2Nc2ccccc21 | 140 to 141

Row | Compound | melting point [°C]
76 | CCc1cc2[nH]ccc(=O)c2c(CC)n1 | 207 to 208
77 | O=C1O[C@@H](CO)CN1c1ccc(-n2ccnn2)c(F)c1 | 179 to 180
78 | O=C1C(=O)c2ccc(-c3cccnc3)cc2C2=C1SCC1(CCN(C(=O)c3cccc(Cl)c3)CC1)O2 | 240 to 242
79 | N=C(N)NCCC[C@@H](NC(=O)C(c1ccccc1)c1ccccc1)C(=O)NCc1ccc(CCC(N)=O)cc1 | 207 to 208
80 | CCOC(=O)CNc1ncccc1NC(=O)c1cccc(F)c1 | 134 to 135
81 | CCCC(=O)C1=C(O)CC(c2cc(C3CCCO3)no2)CC1=O (stereo not given) | 102 to 104
82 | CCOC(=O)CCCCCOc1cc2ccc(-c3ccc(C(=O)O)cc3)cc2cc1C12CC3CC(CC(C3)C1)C2 | 270 to 271
83 | CSc1ccc(/C=C/c2ccc(C(=O)O)cn2)cc1 | 250 to 253
84 | COC(=O)c1cc(OCc2c(C)cccc2C)c2nc(C)n(C)c2c1 | 165 to 169
85 | CN(C)c1ccc(O)c(CNCCc2ccc(N=C(N)c3cccs3)cc2)c1 | 182 to 183
86 | CCNCC1CCN(c2c(F)cc3c(=O)c(C(=O)O)cn(C(C)C)c3c2F)C1 (stereo not given) | 230 to 231
87 | CCc1nc2cc(/C=C/C(=O)NO)ccc2c(=O)n1CCCc1ccccc1 | 189 to 191
88 | CCOC(=O)c1cccc(-c2nc(-c3ccc(OCC)cc3)cs2)c1 | 108 to 110
89 | CCCCCCCCCCCCc1c2c(=O)c3ccccc3c2c(CCCCCCCCCCCC)c2c(=O)c3ccccc3c12 | 123 to 124
90 | Cc1ccc2cccc(OCc3c(Cl)ccc(S(=O)(=O)n4cccc4)c3Cl)c2n1 | 216 to 217
91 | CC(C)[C@]1(CCc2ccc(O)cc2)CC(O)=C(Sc2sc3ccccc3c2C(C)(C)C)C(=O)O1 | 207
92 | CC(=O)NCc1ccc2c(c1)CN(C1CCC(=O)NC1=O)C2=O (stereo not given) | 183 to 185
93 | COc1ccc(-c2ccc(-c3ccc(F)cc3)nc2-c2ccc(OC)cc2)cc1 | 118 to 120
94 | O=[N+]([O-])c1ncc(Cl)cc1O | 97
95 | O=C1NC(=O)C(=Cc2ccc(-c3cc(C45CC6CC(CC(C6)C4)C5)c4oc(NC(=O)C(F)(F)F)nc4c3)nc2)S1 | 353
96 | CC1=NC(=NOC(=O)NC2CCC2)SC1(C)C | 94 to 96
97 | CC1(C)CN=C(NCC2CCCc3ccc(S(=O)(=O)c4ccccc4)cc32)NC1 (stereo not given) | 140 to 145
98 | CC(C)(C)c1ccc(Sc2ccc([N+](=O)[O-])cc2)cc1 | 65 to 66
99 | COc1cc(C)c(CCCCCCCCCCCCCCCCCCOC(C)=O)c(O)c1OC | 53
100 | O=C1N(C(c2ccccc2)c2ccccc2)c2ccccc2C12COc1cc3c(cc12)OCCO3 (stereo not given) | 183 to 185
